Results on one molecule are retold here after US20120053235A1, “Dihydromyricetin as an IKK-beta inhibitor used for treatment of arthritis, cancer and autoimmune conditions, and other diseases or disorders” (HONG KONG BAPTIST UNIVERSITY, priority 2010, published 2012).

Each structure is given as a SMILES string.

Data set [1] relates to IL-2 production in human T-cell. In words: IL-2 ELISA of culture supernatants of stimulated T cells. Further details: dose or concentration left out as unconfirmed. In kind it is cell-based. The following applies: DMY; P/I or anti-OKT-3/anti-CD28 for 48 hours; FIGS. 3A and 3B. The method, then:
The cells (1×10^5/well) were incubated in the presence or absence of DMY for 2 hours at the indicated concentrations, and then the cells were stimulated with P/I or anti-OKT-3/anti-CD28 for 48 hours. The cell-free culture supernatants were collected, and then the concentration of IL-2 in the supernatants was determined by ELISA method.
(An ELISA detects its analyte on a solid surface through an enzyme-linked reagent.)

Data set [2] deals with IKK-α/β phosphorylation in human T lymphocytes. In words: Measurement of the phosphorylation of IKK α/β (Western blot). In kind it is cell-based. The following applies: mediated by PMA/ionomycin or anti-OKT-3/anti-CD28; FIG. 4B. The method, then:
Human T lymphocytes (4×10^6/well) were pretreated with DMY in different concentrations for 60 minutes and then the cells were stimulated with PMA/ionomycin for 30 minutes.
The whole-cell lysates were prepared by lysing the harvested T cells with lysis buffer (50 mM Tris-HCl, pH 7.5, 250 mM NaCl, 5 mM EDTA, 1 mM DTT, 1% Triton, 50 mM NaF, 1 mM sodium orthovanadate, 0.5 mM PMSF and 1× protease inhibitor mix, Roche). Protein concentrations were determined by using Bio-Rad Protein assay (Bio-Rad Laboratories, Inc. Hercules, Calif.). Equal amount of nuclear proteins or whole-cell lysates were analyzed by 10% SDS-polyacrylamide gel electrophoresis (SDS-PAGE). After electrophoresis, the proteins were electro-transferred to the nitrocellulose membranes. After proteins were transferred, the membranes were blocked by 5% dried milk for 60 minutes and then washed three times for 5 minutes in washing interval with TBS-T (Tween-20, 0.05%). The membranes were then incubated with phosphorylation-IKK-α/β primary antibodies overnight at 4° C. and then washed three times with TBS-T. Afterwards, the membranes were incubated again with HRP-conjugated secondary antibodies for 60 minutes. The blots were developed using the enhanced chemiluminescence (ECL, Amersham Bioscience).
A general note: In western blotting, separated proteins are transferred to a membrane and probed.

The test system of data set [3] is collagen II induced arthritis in female Wistar rats. Kind of data set: Collagen II induced arthritis (CIA). In kind it is in vivo. The protocol: Collagen II solution (collagen, 2 mg/ml in 0.05M acetic acid, Chondrex 20022, Redmond, Wash., USA) was emulsified with an equal volume of incomplete Freund's adjuvant (IFA, Chondrex 7002, Redmond, Wash., USA) at 4° C. using a high-speed homogenizer. In the experiment of CIA, DMY was encapsulated with HP-CD (1:8.48) and then dissolved in the normal saline with drug concentrations of 50 and 100 mg/kg body weight. Rats were intradermally injected at the base of the tail with 100 μl collagen/incomplete Freund's adjuvant (IFA) emulsion containing […] of collagen II by the use of a glass syringe equipped with a locking hub and a 27-G needle. On day 7 after the primary immunization, all the rats were given a booster injection of 100 μg of collagen II in IFA. On the day after the onset of arthritis (day 13), the CIA rats were exposed to a daily intraperitoneal administration of DMY (50 and 100 mg/kg) until day 30 of the study. DEX (0.1 mg/kg, one per day), MTX (3.75 mg/kg, twice per week), and indomethacin (1 mg/kg, one per day) were used as positive reference drugs. The rats were inspected daily from the onset of arthritis characterized by edema and/or erythema in the paws. The incidence and severity of arthritis were evaluated using an arthritic scoring system, and bi-hind paw volumes and body weight were measured every 2 days started on the day when the arthritic signs were firstly visible (day 13). In the arthritic scoring system, lesions (i.e., the clinical arthritic signs) of the four paws of each rat were graded from 0 to 4 according to the extent of both edema and erythema of the periarticular tissues. As such, 16 was the potential maximum of the combined arthritic scores per animal. The hind paw volumes were measured using a plethysmometer chamber (7140 UGO. Basile, Comerio, Italy) and expressed as the mean volume change of both hind paws of the rats. Body weight of the rats was monitored with a 0.1 g precision balance (Sartorius AG, Goettingen, Germany). On day 30, all rats were sacrificed with liver, spleen and thymus being collected and weighted. The organ index for a specific organ is equal to the ratio of the weight of that organ to a body weight of 100 g.

For data set [4], the system named is isolated human T lymphocytes. Kind of data set: T cells proliferation assay (BrdU ELISA). In kind it is cell-based. The following applies: stimulated with anti-OKT 3/anti-CD28 or PMA/ionomycin, 72 hours; FIGS. 2A and 2B. The method, then: The isolated human T lymphocytes (1×10^5 cells/well) were stimulated with anti-OKT 3/anti-CD28 antibodies or PMA/ionomycin (P/I) in the presence or absence of DMY for 72 hours.
5-bromo-2′-deoxy-uridine (BrdU, Roche) was added to the cells at the 14th hour before the end of stimulation and it could be incorporated into the DNA of the growing cells during the labeling period. The amount of BrdU incorporated into DNA was quantified as an indicator of cell proliferation. BrdU was determined by ELISA according to manufacturer's instructions.

In data set [5] the test system is NF-κB-Luciferase reporter in Jurkat T cells. Kind of data set: NF-κB reporter assay (luciferase). In kind it is cell-based. The following applies: 20 ng/ml PMA plus 1 μM ionomycin, 6 hours; FIG. 6B. The method, then: The Jurkat T cells are transiently transfected with NF-κB-Luciferase reporter plasmid with lipofectamine LTX (Invitrogen). The transfected cells were treated with 20 ng/ml PMA plus 1 μM ionomycin in the presence or absence of biotin-DMY for 6 hours. The cells were then lysed in Passive Lysis Buffer (Promega) and the transcriptional activity was determined by measuring the activity of firefly luciferase in a microplate luminometer (Perkin Elmer) using Luciferase Reporter Assay (Promega).
On the technique in general: A reporter such as luciferase makes a cellular process visible.

[6] abbreviates: CIA rats, daily intraperitoneal 50 and 100 mg/kg, day 13 to day 30, vs vehicle-treated, FIGS. 10A and B.

On to `O=C1c2c(O)cc(O)cc2O[C@H](c2cc(O)c(O)c(O)c2)[C@H]1O` [DMY, dihydromyricetin], for which the “production of IL-2” value in data set [1] is given as “suppress the production of IL-2”. In addition, the IKK-α/β phosphorylation entry in data set [2] is on record as “inhibit IKK-ca/3 phosphorylation”. The “ameliorative effect compared with MTX” value in data set [3] (CIA rats, DMY 100 mg/kg, MTX 3.75 mg/kg twice per week) was “better than that of MTX”. In addition, in data set [3] (setting [6]), the arthritic scores result is reported as “significantly reduced” and the hind paw volume result is given as “significantly reduced”. The “organ indexes of spleen and/or thymus” value in data set [3] (rat, in vivo) is listed as “no adverse effect”. The T cell proliferation result in data set [4] is on record as “block T cell proliferation”. The NF-κB transcriptional activity entry in data set [5] is reported as “significantly suppressed”.
